Legend:
Assay in all cases: Eurofins KINOMEscan profiling, 97 kinases
[1] = target: 97 kinases (kinase named in endpoint) (Homo sapiens, UniProt P08069); details: read-out: % Ctrl, IGF1R
Experimental: (§1) This experiment was performed by Eurofins KINOMEscan™ Profiling Service. […] The lysates were centrifuged and filtered, the remaining kinases were produced in HEK-293 cells and subsequently tagged with DNA for qPCR detection. […] The liganded beads were blocked with excess biotin and washed with blocking buffer (SeaBlock (Pierce), 1% BSA, 0.05% Tween-20, 1 mM DTT). […] Test compounds were prepared as 100x stocks in 100% DMSO and directly diluted into the assay. All reactions were performed in polypropylene 384-well plates in a final volume of 0.02 ml. […] The kinase concentration in the eluates was measured by qPCR.
(§2) (negative control signal - positive control signal)] x 100. ( b) AccompanyingSelectivity Scores or S -scores
(§3) which are quantitative measures of compound selectivity. They are calculated by dividing the number of
(§4) kinases that compounds bind to by the total number of distinct kinases tested, excluding mutant variants.
(§5) S(35)= ( num ber of non -mutant kinases with %Ctrl <35)/(number of non- mutant kinases tested)], S(10)=
(§6) non- mutant kinases with %Ctrl <1)/(number of non- mutant kinases tested)].

[2] = target: 97 kinases (kinase named in endpoint) (Homo sapiens, UniProt Q9UPE1); details: read-out: % Ctrl, SRPK3
Experimental: as §1, §2, §3, §4, §5, §6

[3] = target: 97 kinases (kinase named in endpoint) (Homo sapiens, UniProt P27448); details: read-out: % Ctrl, MARK3
Experimental: as §1, §2, §3, §4, §5, §6

[4] = target: 97 kinases (kinase named in endpoint) (Homo sapiens, UniProt P42336); details: read-out: % Ctrl, PIK3CA
Experimental: as §1, §2, §3, §4, §5, §6

[5] = target: 97 kinases (kinase named in endpoint) (Homo sapiens, UniProt P09619); details: read-out: % Ctrl, PDGFRB
Experimental: as §1, §2, §3, §4, §5, §6

[6] = target: 97 kinases (kinase named in endpoint) (Homo sapiens, UniProt O96013); details: read-out: % Ctrl, PAK4
Experimental: as §1, §2, §3, §4, §5, §6

[7] = target: 97 kinases (kinase named in endpoint) (Homo sapiens, UniProt P00533); details: read-out: % Ctrl, EGFR
Experimental: as §1, §2, §3, §4, §5, §6

[8] = target: 97 kinases (kinase named in endpoint) (Homo sapiens, UniProt P07949); details: read-out: % Ctrl, RET
Experimental: as §1, §2, §3, §4, §5, §6

[9] = target: 97 kinases (kinase named in endpoint) (Homo sapiens, UniProt Q15759); details: read-out: % Ctrl, p38-beta
Experimental: as §1, §2, §3, §4, §5, §6

[10] = target: 97 kinases (kinase named in endpoint) (Homo sapiens, UniProt P21802); details: read-out: % Ctrl, FGFR2
Experimental: as §1, §2, §3, §4, §5, §6

[11] = target: 97 kinases (kinase named in endpoint) (Homo sapiens, UniProt P11309); details: read-out: % Ctrl, PIM1
Experimental: as §1, §2, §3, §4, §5, §6

[12] = target: 97 kinases (kinase named in endpoint) (Homo sapiens, UniProt P17612); details: read-out: % Ctrl, PKAC-alpha
Experimental: as §1, §2, §3, §4, §5, §6

[13] = target: 97 kinases (kinase named in endpoint) (Homo sapiens, UniProt P45983); details: read-out: % Ctrl, JNK1
Experimental: as §1, §2, §3, §4, §5, §6

[14] = target: 97 kinases (kinase named in endpoint) (Homo sapiens, UniProt O60674); details: read-out: % Ctrl, JAK2(JH1domain-catalytic)
Experimental: as §1, §2, §3, §4, §5, §6

[15] = target: 97 kinases (kinase named in endpoint) (Homo sapiens, UniProt Q9BVS4); details: read-out: % Ctrl, RIOK2
Experimental: as §1, §2, §3, §4, §5, §6

[16] = target: 97 kinases (kinase named in endpoint) (Homo sapiens, UniProt P07333); details: read-out: % Ctrl, CSF1R
Experimental: as §1, §2, §3, §4, §5, §6

[17] = target: 97 kinases (kinase named in endpoint) (Homo sapiens, UniProt P00519, E255K); details: read-out: % Ctrl, ABL1(E255K)-phosphorylated
Experimental: as §1, §2, §3, §4, §5, §6

[18] = target: 97 kinases (kinase named in endpoint) (Homo sapiens, UniProt P00533, L858R); details: read-out: % Ctrl, EGFR(L858R)
Experimental: as §1, §2, §3, §4, §5, §6

[19] = target: 97 kinases (kinase named in endpoint) (Homo sapiens, UniProt Q16539); details: read-out: % Ctrl, p38-alpha
Experimental: as §1, §2, §3, §4, §5, §6

[20] = target: 97 kinases (kinase named in endpoint) (Homo sapiens, UniProt Q02156); details: read-out: % Ctrl, PRKCE
Experimental: as §1, §2, §3, §4, §5, §6

[21] = target: 97 kinases (kinase named in endpoint) (Homo sapiens, UniProt P22607); details: read-out: % Ctrl, FGFR3
Experimental: as §1, §2, §3, §4, §5, §6

[22] = target: 97 kinases (kinase named in endpoint) (Homo sapiens, UniProt O75116); details: read-out: % Ctrl, ROCK2
Experimental: as §1, §2, §3, §4, §5, §6

[23] = target: 97 kinases (kinase named in endpoint) (Homo sapiens, UniProt P48730); details: read-out: % Ctrl, CSNK1D
Experimental: as §1, §2, §3, §4, §5, §6

[24] = target: 97 kinases (kinase named in endpoint) (Homo sapiens, UniProt P43403); details: read-out: % Ctrl, ZAP70
Experimental: as §1, §2, §3, §4, §5, §6

[25] = target: 97 kinases (kinase named in endpoint) (Homo sapiens, UniProt P50613); details: read-out: % Ctrl, CDK7
Experimental: as §1, §2, §3, §4, §5, §6

[26] = target: 97 kinases (kinase named in endpoint) (Homo sapiens, UniProt Q8IYT8); details: read-out: % Ctrl, ULK2
Experimental: as §1, §2, §3, §4, §5, §6

[27] = target: 97 kinases (kinase named in endpoint) (Homo sapiens, UniProt P12931); details: read-out: % Ctrl, SRC
Experimental: as §1, §2, §3, §4, §5, §6

[28] = target: 97 kinases (kinase named in endpoint) (Homo sapiens, UniProt P10721); details: read-out: % Ctrl, KIT
Experimental: as §1, §2, §3, §4, §5, §6

97 kinases (kinase named in endpoint) (Homo sapiens, UniProt P11309), sequence (P11309 whole entry): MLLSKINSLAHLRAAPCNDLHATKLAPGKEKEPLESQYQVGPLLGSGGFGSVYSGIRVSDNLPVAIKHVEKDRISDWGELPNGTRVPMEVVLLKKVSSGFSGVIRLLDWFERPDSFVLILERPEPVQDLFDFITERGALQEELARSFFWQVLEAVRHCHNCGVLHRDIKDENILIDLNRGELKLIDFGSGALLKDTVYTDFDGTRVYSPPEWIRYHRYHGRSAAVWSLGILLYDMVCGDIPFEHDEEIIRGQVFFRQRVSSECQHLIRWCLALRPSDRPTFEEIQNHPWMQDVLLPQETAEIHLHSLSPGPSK
97 kinases (kinase named in endpoint) (Homo sapiens, UniProt P42336), sequence (P42336 whole entry): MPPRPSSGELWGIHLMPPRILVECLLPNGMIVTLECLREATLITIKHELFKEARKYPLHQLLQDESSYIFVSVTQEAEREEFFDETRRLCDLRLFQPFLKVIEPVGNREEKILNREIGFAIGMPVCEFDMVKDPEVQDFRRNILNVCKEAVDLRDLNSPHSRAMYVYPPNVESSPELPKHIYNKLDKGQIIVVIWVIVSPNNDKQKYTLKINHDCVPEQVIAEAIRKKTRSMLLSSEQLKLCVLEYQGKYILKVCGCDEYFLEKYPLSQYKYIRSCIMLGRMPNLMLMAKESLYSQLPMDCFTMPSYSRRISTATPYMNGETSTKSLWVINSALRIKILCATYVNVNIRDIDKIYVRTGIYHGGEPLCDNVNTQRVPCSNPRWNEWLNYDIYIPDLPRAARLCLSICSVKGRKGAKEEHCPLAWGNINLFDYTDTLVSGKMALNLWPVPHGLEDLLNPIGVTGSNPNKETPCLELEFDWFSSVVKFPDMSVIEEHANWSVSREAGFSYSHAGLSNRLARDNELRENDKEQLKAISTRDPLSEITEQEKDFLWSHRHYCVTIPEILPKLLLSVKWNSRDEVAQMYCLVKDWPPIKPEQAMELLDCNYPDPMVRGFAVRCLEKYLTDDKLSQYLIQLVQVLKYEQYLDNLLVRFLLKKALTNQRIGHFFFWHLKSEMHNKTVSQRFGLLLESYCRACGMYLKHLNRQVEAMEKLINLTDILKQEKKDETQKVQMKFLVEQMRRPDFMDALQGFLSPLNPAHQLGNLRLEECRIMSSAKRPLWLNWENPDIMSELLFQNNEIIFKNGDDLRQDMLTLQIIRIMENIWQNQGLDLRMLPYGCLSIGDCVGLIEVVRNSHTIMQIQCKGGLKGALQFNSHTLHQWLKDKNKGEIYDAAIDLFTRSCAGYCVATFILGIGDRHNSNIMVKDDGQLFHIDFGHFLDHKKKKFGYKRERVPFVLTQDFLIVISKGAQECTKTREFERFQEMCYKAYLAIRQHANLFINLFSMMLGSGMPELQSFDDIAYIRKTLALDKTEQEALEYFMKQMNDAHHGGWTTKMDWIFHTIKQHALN
97 kinases (kinase named in endpoint) (Homo sapiens, UniProt Q9BVS4), sequence (Q9BVS4 whole entry): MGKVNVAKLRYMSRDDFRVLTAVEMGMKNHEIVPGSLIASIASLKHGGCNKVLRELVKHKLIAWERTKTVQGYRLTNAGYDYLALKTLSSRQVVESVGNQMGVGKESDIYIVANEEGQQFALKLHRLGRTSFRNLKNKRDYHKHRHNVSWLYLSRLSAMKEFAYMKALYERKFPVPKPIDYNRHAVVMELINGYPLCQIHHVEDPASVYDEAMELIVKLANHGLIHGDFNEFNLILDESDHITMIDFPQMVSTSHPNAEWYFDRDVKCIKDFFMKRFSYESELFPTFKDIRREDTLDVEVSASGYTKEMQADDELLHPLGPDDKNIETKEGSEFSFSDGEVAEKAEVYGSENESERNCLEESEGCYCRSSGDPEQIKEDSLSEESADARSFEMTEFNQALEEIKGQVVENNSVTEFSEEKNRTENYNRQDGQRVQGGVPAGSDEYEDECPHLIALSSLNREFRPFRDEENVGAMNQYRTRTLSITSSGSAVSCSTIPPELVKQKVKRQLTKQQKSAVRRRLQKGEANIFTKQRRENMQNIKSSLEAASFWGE
97 kinases (kinase named in endpoint) (Homo sapiens, UniProt O75116), sequence (O75116 whole entry): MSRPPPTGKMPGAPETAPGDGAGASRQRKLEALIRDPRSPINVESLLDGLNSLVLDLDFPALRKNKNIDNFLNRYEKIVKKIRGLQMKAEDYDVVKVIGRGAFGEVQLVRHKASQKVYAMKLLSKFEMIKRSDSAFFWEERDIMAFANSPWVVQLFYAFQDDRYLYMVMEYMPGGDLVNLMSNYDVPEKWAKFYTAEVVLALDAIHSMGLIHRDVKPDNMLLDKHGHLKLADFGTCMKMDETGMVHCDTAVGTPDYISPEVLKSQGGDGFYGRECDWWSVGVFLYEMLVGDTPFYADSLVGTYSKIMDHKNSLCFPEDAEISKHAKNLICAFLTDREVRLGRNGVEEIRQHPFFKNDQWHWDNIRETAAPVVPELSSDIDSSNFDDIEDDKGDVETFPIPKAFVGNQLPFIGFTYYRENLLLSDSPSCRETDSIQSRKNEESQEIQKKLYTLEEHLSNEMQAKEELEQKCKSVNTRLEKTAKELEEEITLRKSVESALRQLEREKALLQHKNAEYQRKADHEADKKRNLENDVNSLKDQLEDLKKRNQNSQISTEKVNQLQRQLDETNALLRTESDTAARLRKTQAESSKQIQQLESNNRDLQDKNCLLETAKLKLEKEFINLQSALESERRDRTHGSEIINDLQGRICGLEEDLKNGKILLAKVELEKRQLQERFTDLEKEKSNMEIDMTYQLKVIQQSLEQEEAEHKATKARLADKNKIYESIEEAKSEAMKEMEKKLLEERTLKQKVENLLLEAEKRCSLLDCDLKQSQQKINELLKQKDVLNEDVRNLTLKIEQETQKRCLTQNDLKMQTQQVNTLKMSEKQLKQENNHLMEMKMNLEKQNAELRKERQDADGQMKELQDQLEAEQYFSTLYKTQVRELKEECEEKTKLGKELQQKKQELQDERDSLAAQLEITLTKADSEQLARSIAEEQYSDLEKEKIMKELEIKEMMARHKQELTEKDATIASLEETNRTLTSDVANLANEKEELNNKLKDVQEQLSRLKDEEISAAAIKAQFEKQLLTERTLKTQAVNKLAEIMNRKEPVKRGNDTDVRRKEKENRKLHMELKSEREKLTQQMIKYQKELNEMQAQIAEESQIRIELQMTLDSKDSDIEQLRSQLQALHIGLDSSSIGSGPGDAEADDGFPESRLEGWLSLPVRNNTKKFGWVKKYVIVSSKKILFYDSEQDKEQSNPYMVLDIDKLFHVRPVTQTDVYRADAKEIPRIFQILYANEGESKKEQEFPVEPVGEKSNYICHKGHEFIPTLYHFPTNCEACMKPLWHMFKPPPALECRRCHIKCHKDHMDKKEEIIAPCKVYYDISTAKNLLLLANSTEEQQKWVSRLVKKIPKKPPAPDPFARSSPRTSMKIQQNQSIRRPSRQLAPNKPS
97 kinases (kinase named in endpoint) (Homo sapiens, UniProt P07949), sequence (P07949 29-1114): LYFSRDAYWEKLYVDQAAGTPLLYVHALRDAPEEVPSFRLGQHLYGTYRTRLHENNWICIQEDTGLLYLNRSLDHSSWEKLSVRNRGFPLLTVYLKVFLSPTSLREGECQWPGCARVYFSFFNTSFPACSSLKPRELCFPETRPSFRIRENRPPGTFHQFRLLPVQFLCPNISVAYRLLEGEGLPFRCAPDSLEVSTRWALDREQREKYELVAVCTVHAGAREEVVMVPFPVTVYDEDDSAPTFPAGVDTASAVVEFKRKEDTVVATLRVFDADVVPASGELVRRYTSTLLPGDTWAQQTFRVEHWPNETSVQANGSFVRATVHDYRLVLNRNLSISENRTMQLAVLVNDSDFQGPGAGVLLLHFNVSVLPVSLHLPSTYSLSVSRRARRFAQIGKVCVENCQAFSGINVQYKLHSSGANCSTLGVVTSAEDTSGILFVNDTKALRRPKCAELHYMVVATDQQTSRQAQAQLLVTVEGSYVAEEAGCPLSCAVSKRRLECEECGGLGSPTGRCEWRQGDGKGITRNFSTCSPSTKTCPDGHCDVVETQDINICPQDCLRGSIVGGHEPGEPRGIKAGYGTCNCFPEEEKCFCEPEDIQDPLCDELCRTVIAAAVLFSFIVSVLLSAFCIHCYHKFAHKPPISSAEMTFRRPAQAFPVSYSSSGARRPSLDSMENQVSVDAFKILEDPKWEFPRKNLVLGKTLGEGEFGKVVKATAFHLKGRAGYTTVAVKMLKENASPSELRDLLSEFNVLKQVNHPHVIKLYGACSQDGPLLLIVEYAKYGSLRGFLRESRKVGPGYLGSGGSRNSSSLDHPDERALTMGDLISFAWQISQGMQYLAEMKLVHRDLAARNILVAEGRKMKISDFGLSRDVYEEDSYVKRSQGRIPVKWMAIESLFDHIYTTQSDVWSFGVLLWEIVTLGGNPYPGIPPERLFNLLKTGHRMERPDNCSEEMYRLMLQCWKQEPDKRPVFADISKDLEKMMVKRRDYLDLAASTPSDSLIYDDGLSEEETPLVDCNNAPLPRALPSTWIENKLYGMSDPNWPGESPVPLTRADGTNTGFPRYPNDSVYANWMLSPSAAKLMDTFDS
97 kinases (kinase named in endpoint) (Homo sapiens, UniProt P43403), sequence (P43403 whole entry): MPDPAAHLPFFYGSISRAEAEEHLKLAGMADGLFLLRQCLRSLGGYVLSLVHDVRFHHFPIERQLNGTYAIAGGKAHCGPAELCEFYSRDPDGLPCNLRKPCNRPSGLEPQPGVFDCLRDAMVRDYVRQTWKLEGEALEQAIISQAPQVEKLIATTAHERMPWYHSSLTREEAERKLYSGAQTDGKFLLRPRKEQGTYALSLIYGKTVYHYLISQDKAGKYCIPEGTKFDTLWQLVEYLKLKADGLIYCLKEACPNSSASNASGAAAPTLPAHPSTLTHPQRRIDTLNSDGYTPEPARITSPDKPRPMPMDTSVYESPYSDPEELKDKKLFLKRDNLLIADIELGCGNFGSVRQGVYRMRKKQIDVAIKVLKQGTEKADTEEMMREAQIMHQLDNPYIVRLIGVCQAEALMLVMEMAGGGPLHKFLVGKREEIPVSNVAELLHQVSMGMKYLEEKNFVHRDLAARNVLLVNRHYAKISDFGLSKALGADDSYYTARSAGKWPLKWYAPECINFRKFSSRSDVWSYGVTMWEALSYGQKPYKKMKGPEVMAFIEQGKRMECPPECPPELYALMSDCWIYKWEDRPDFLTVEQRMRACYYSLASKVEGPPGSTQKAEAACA

| Structure (SMILES) | remaining binding at 1 µM [1] | remaining binding at 1 µM [2] | remaining binding at 1 µM [3] | remaining binding at 1 µM [4] | remaining binding at 1 µM [5] | remaining binding at 1 µM [6] | remaining binding at 1 µM [7] | remaining binding at 1 µM [8] | remaining binding at 1 µM [9] | remaining binding at 1 µM [10] | remaining binding at 1 µM [11] | remaining binding at 1 µM [12] | remaining binding at 1 µM [13] | remaining binding at 1 µM [14] | remaining binding at 1 µM [15] | remaining binding at 1 µM [16] | remaining binding at 1 µM [17] | remaining binding at 1 µM [18] | remaining binding at 1 µM [19] | remaining binding at 1 µM [20] | also measured |
| --- | --- | --- | --- | --- | --- | --- | --- | --- | --- | --- | --- | --- | --- | --- | --- | --- | --- | --- | --- | --- | --- |
| CCCCCCCCCCCCCC(=O)N[C@@H](CC(N)=O)C(=O)N[C@@H](CC(C)C)C(=O)N[C@]1(C)CCCCCCC=CCCC[C@@](C)(C(=O)N[C@@H](CCC(=O)O)C(=O)N[C@@H](CC(C)C)C(=O)N[C@@H](CC(N)=O)C(N)=O)NC(=O)[C@H](CC(C)C)NC(=O)[C@H](CC(C)C)NC(=O)[C@H](CCCNC(=N)N)NC(=O)[C@H](CC(=O)O)NC(=O)[C@H](CC(C)C)NC(=O)[C@H](CCC(=O)O)NC1=O [compound 2012] | 100% | 79% | 91% | 100% | 94% | 100% | 93% | 99% | 98% | 90% | 100% | 91% | 97% | 87% | 91% | 95% | 70% | 99% | 98% | 53% | remaining binding at 1 µM [21]: 95%; remaining binding at 1 µM [22]: 100%; remaining binding at 1 µM [23]: 97%; remaining binding at 1 µM [24]: 96%; remaining binding at 1 µM [25]: 69%; remaining binding at 1 µM [26]: 100%; remaining binding at 1 µM [27]: 99%; remaining binding at 1 µM [28]: 96% |
| CNC(=O)c1ccc(Nc2ncc(C(F)(F)F)c(NCc3nccnc3N(C)S(C)(=O)=O)n2)cc1 [defactinib] | 71% | 47% | 50% | 100% | 18% | 7.4% | 92% | 12% | 89% | 43% | 73% | 72% | 61% | 0.1% | 50% | 72% | 82% | 81% | 100% | 42% | remaining binding at 1 µM [21]: 45%; remaining binding at 1 µM [22]: 43%; remaining binding at 1 µM [23]: 93%; remaining binding at 1 µM [24]: 95%; remaining binding at 1 µM [25]: 22%; remaining binding at 1 µM [26]: 28%; remaining binding at 1 µM [27]: 36%; remaining binding at 1 µM [28]: 47% |
